Experimental data reported in patent US20220133694A1, “PHARMACEUTICAL USE” (Novartis AG, priority 2015, published 2022).

Test system: heart failure patients (NYHA class II-IV) with reduced ejection fraction
Settings: randomized patients
Procedure: Patients enrolled were stratified based on the pre-study level of RAAS inhibition (high/low).
Patients were stratified based on the level of RAAS inhibition as follows: • High RAAS stratum: Patients receiving >160 mg of valsartan or >10 mg total daily dose of enalapril, or equivalent doses of other ARBs/ACEls, respectively, at screening • Low RAAS stratum: Patients receiving ≤160 mg of valsartan or ≤10 mg total daily dose of enalapril, or equivalent doses of other ARBs/ACEls, respectively, at screening. This stratum also included patients who were not on an ACEI or an ARB 4 weeks prior to screening (i.e., ACEI/ARB-naive patients)
Patients who met all the entry criteria and completed the ACEI-free washout period (if required) attended Visit 2 within approximately one week after Visit 1. […] Eligible hospitalized patients also took the study medication while they were still in the hospital and before they were discharged. Patients took the study medication in addition to their background HF therapy, except for ACEIs and ARBs, which were replaced by the study medication.

For “trisodium [3-((1S,3R)-1-biphenyl-4-ylmethyl-3-ethoxycarbonyl-1-butylcarbamoyl) propionate-(S)-3′-methyl-2′-(pentanoyl{2″-(tetrazol-5-ylate)biphenyl-4′-ylmethyl}amino)butyrate]hemipentahydrate [LCZ696]”, which “most common reasons for dose adjustment/interruption or permanent discontinuation (AEs)” value is on record?
Its value is “hypotension, renal dysfunction or hyperkalemia”.
